Laboratory results taken from PMC13147323, “EGFR-Targeted and MMP-Activated Membranolytic Peptides Kill Cancer Cells Specifically In Vitro and Reduce Tumor Growth In Vivo” (Molecular Pharmaceutics, 2026).
Entries after “also recorded” stand apart in the source; their conditions may differ. Structures can show the parent of a compound that is named as a salt. Residues, ends and D or L forms follow the SMILES beside them.

Experiments:
HB2 cells = assay type: cell-based, human; conditions: 24 h
Description: (§1) MDA-MB-468, MDA-MB-231, BT-474, AU-565, HB2, and MCF-10A cells were procured from American Type Culture Collection (ATCC) and validated for lack of mycoplasma contamination (MycoAlert; Lonza, Basel, Switzerland) and identity (short tandem repeat profiling; Source Bioscience, Nottingham, UK). Cells (except MCF-10A) were cultured in Dulbecco’s modified Eagle medium (DMEM) supplemented with 10% (v/v) fetal calf serum (FCS) and 100 units/mL penicillin–streptomycin (Thermo Scientific; Waltham, MA, USA). MCF-10A was cultured in DMEM supplemented with 5% horse serum, 0.1 μg/mL cholera toxin, 0.5 μg/mL hydrocortisone, 0.02 μg/mL epidermal growth factor, and 100 units/mL penicillin–streptomycin (Thermo Scientific, Waltham, MA, USA). Cells were grown at 37 °C in a humidified incubator with 5% CO2. Cells were maintained and experiments were performed under conditions ensuring cell densities that supported exponential growth.
(§2) Cells were seeded in 96-well plates at 1 × 10^4 cells/well in complete growth media and incubated for 18 h. Cells were then treated with peptides (0–250 μM) for up to 24 h. Cells were then incubated with 0.5 mg/mL MTT dissolved in PBS for 3 h. Formazan crystals were dissolved using […] of isopropanol and absorbance was measured at 570 nm on a microplate spectrophotometer (Biotech Instruments, USA). For spheroids assays, MDA-MB-468 or HB2 cells (1000 cells/well) were seeded in 250 μL of DMEM supplemented with 10% FCS and 2.5% Matrigel (Corning, New York, USA) in low-adherent, round-bottom 96-well plates (Corning, New York, USA). The plates were centrifuged at 360g for 10 min and subsequently incubated for 48 h to allow spheroid formation. MDA-MB-468 or HB2 spheroids were then treated with peptides at the IC50 doses determined for MDA-MB-468 cells for 24 h. Cellular viability within spheroids was assessed by staining with Hoechst 33342 (5 μg/mL) for 30 min, followed by propidium iodide (PI) (1.5 μg/mL) for 10 min. Red fluorescence indicated nonviable cells stained with PI, whereas blue fluorescence represented both viable and nonviable cells stained with Hoechst 33342. The survival of spheroids was determined by calculating ratios of blue/red fluorescence using ImageJ software.
(§3) A panel of human breast epithelial cell lines was established, including two lines from a nontransformed origin (MCF-10A; HB2) and four cancer lines (BT-474; AU-565; MDA-MB-231; MDA-MB-468). Cells were treated with different doses of MP1 or the modified peptides. Survival was assessed relative to untreated using MTT assays (Figures and S2) and IC50 doses were determined for each peptide in each cell line.

MDA-MB-468 cells [1] = assay type: cell-based, human; conditions: 24 h
Description: as §1, §2, §3

red blood cells = assay: Ex vivo hemolysis assay; assay type: cell-based; conditions: mouse RBCs 1:50 in PBS, 1 h, 37 °C, absorbance 540 nm; for hemolysis (in words): three doses
Description: Blood was collected from five 10-week-old male C57BL/6 mice via cardiac puncture following cervical dislocation, using pediatric blood collection tubes containing K3 EDTA (Greiner; Slušovice, Czechia). Blood was centrifuged (500g; 5 min; 4 °C) and plasma was removed. Red blood cells (RBCs) were resuspended to their original volume using 150 mM NaCl. RBCs were repeatedly washed and diluted to 1:50 in PBS. For a positive control, 1% (v/v) Triton X-100 was used (100% lysis), while cells incubated in PBS served as a negative control (0% lysis). 200 μL of RBCs in triplicate was treated with peptides and incubated on an orbital shaker (100 rpm; 1 h; 37 °C). Samples were centrifuged (500g; 5 min) and supernatants, containing lysed RBCs, were collected. Hemolysis was quantified by measuring absorbance at 540 nm.
Our next aim was to assess whether our various peptides had potential as anticancer therapeutics using an in vivo model. To our knowledge, MP1 or MP1-derived peptides have not previously been used experimentally in vivo, therefore we first performed an in vitro hemolysis assay to aid selection of peptides that could be suitable for intravenous delivery. Red blood cells were isolated from mouse blood and treated with three different doses of MP1 wildtype or our targeted peptides (EGFR and EGFR-MMP versions of both MP1 and D2K) and hemolysis was measured (Figure A).

AU-565 cells = assay type: cell-based, human; conditions: 24 h
Description: as §1, §2, §3

BT-474 cells = assay type: cell-based, human; conditions: 24 h
Description: as §1, §2, §3

MCF-10A cells = assay type: cell-based, human; conditions: 24 h
Description: as §1, §2, §3

MDA-MB-231 cells = assay type: cell-based, human; conditions: 24 h
Description: as §1, §2, §3

MDA-MB-468 xenografts = assay: MDA-MB-468 xenograft study in NCG mice; assay type: in vivo, mouse; conditions: 500 μg i.v. days 1, 3, 5, monitored 27 days, recovered by the end of the experiment
Description: These were performed by HD Biosciences (Shanghai, China). Procedures related to handling, care, and treatment of animals were performed according to guidelines approved by the HD Biosciences Institutional Animal Care and Use Committee (reference number AUC105), under the criteria of the Association for Assessment and Accreditation of Laboratory Animal Care (AAALAC). Protocols and AAALAC accreditation were reviewed by the Animal Welfare and Ethical Review Committee at the University of Leeds and were approved (reference number THAWERC222707; date 28/7/2022). Protocols and data are reported in accordance with the ARRIVE guidelines (https://arriveguidelines.org/arrive-guidelines). Female NCG mice (6–8 weeks old) were purchased from GemPharmatech Ltd. (Nanjing, China). […] Two groups were used: control group (13 animals) and test group (7 animals); group sizes were not determined by power calculation due to lack of data on which this could be based. […] Tumor volumes were monitored using calipers, and body weight was monitored throughout the experiment; no animals were excluded. […]
NCG immune-compromised female mice were implanted subcutaneously with MDA-MB-468 xenografts. […] Tumor size and animal weight were monitored every 2 to 3 days for a total of 27 days, after which animals were sacrificed and tumors were dissected and weighed. […]

MDA-MB-468 cells [2] = assay: MTT survival with or without MMP-2 inhibitor, MDA-MB-468; assay type: cell-based, human; conditions: MDA-MB-468, MTT, 24 h; 20 μM EGFR-MP1, 30 μM EGFR-MMP-MP1 or 2 μM chlorhexidine dihydrochloride alone
Description: Cells were seeded in 6-well plates at 3 × 10^5 in complete medium and allowed to grow for 48 h. 500 μL of cell media from each cell line was collected and centrifuged at 5000 rpm for 15 min at 4 °C. Supernatants were collected and 50 μL of each was added in 3 replicate wells of a monoclonal mouse antihuman MMP-2 antibody precoated 96-well ELISA plate (Human Total MMP-2 kit; BioLegend, USA). It was then mixed with the respective assay buffers as per the kit instruction. The plate was then sealed and incubated at room temperature (2 h). The supernatant sample was then discarded and the wells were washed with assay buffer several times. Next, 100 μL of Human Total MMP-2 Detection Antibody solution was added into the wells and incubated (1 h). 100 μL of Avidin-HRP solution was then added for 1 h, and finally, after washing, 100 μL of substrate solution was added. Absorbance was measured at 450 nm (Biotech Instruments, USA). The final MMP-2 concentration was calculated against a standard curve. […]
We were also interested to test formally whether the efficacy of EGFR-MMP-MP1 was dependent on MMP-2 activity. Therefore, we treated MDA-MB-468 cells with EGFR-MMP-MP1 or with EGFR-MP1, in the presence or absence of the MMP-2 inhibitor chlorhexidine dihydrochloride, and assessed cell survival relative to untreated (Figure C,D).

SMILES | IC50 (HB2 cells) [µM] | IC50 (MDA-MB-468 cells [1]) [µM] | hemolysis (red blood cells; 50 μM peptide, 1% Triton X-100 = 100%) [%] | IC50 (AU-565 cells) [µM] | IC50 (BT-474 cells) [µM] | IC50 (MCF-10A cells) [µM] | IC50 (MDA-MB-231 cells) [µM] | selectivity index (IC50 noncancer line / IC50 cancer line) (MDA-MB-468 cells [1]) | hemolysis (in words) (red blood cells) | animal weights as surrogate for side-effects (MDA-MB-468 xenografts) | cell survival relative to untreated, single agent (MDA-MB-468 cells [2])
CC[C@H](C)[C@H](N)C(=O)N[C@@H](CCCCN)C(=O)N[C@@H](Cc1c[nH]c2ccccc12)C(=O)N[C@@H](CCCCN)C(=O)N[C@@H](CCCCN)C(=O)N[C@@H](CC(C)C)C(=O)N[C@@H](CC(C)C)C(=O)N[C@@H](CC(=O)O)C(=O)N[C@@H](C)C(=O)N[C@@H](C)C(=O)N[C@@H](CCCCN)C(=O)N[C@@H](CCC(N)=O)C(=O)N[C@H](C(=O)N[C@@H](CC(C)C)C(=O)NCC(=O)N1CCC[C@H]1C(=O)N[C@@H](CC(C)C)C(=O)NCC(=O)N[C@H](C(=O)N[C@@H](C)C(=O)NCC(=O)N[C@@H](CCC(N)=O)C(=O)N[C@@H](Cc1ccc(O)cc1)C(=O)N[C@@H](Cc1c[nH]cn1)C(=O)N[C@@H](Cc1c[nH]c2ccccc12)C(=O)N[C@@H](Cc1ccc(O)cc1)C(=O)NCC(=O)N[C@@H](Cc1ccc(O)cc1)C(=O)N[C@H](C(=O)N1CCC[C@H]1C(=O)N[C@@H](CCC(=O)O)C(=O)N[C@@H](CC(N)=O)C(=O)N[C@H](C(=O)N[C@H](C(=O)O)[C@@H](C)CC)C(C)C)[C@@H](C)O)[C@@H](C)CC)[C@@H](C)CC [EGFR-MMP-D2K] (H-IKWKKLLDAAKQILGPLGIAGQYHWYGYTPENVI-OH) | 79.8 | 32.1 | 5.9 | – | – | – | – | – | – | – | –
CC[C@H](C)[C@H](N)C(=O)N[C@@H](CC(=O)O)C(=O)N[C@@H](Cc1c[nH]c2ccccc12)C(=O)N[C@@H](CCCCN)C(=O)N[C@@H](CCCCN)C(=O)N[C@@H](CC(C)C)C(=O)N[C@@H](CC(C)C)C(=O)N[C@@H](CC(=O)O)C(=O)N[C@@H](C)C(=O)N[C@@H](C)C(=O)N[C@@H](CCCCN)C(=O)N[C@@H](CCC(N)=O)C(=O)N[C@H](C(=O)N[C@@H](CC(C)C)C(=O)NCC(=O)N1CCC[C@H]1C(=O)N[C@@H](CC(C)C)C(=O)NCC(=O)N[C@H](C(=O)N[C@@H](C)C(=O)NCC(=O)N[C@@H](CCC(N)=O)C(=O)N[C@@H](Cc1ccc(O)cc1)C(=O)N[C@@H](Cc1c[nH]cn1)C(=O)N[C@@H](Cc1c[nH]c2ccccc12)C(=O)N[C@@H](Cc1ccc(O)cc1)C(=O)NCC(=O)N[C@@H](Cc1ccc(O)cc1)C(=O)N[C@H](C(=O)N1CCC[C@H]1C(=O)N[C@@H](CCC(=O)O)C(=O)N[C@@H](CC(N)=O)C(=O)N[C@H](C(=O)N[C@H](C(=O)O)[C@@H](C)CC)C(C)C)[C@@H](C)O)[C@@H](C)CC)[C@@H](C)CC [EGFR-MMP-MP1] (H-IDWKKLLDAAKQILGPLGIAGQYHWYGYTPENVI-OH) | 92.4 | 56.6 | – | 105 | 116 | 114 | 57.9 | 1.63 | low hemolysis at relevant doses | slightly reduced | –
CC[C@H](C)[C@H](N)C(=O)N[C@@H](CC(=O)O)C(=O)N[C@@H](Cc1c[nH]c2ccccc12)C(=O)N[C@@H](CCCCN)C(=O)N[C@@H](CCCCN)C(=O)N[C@@H](CC(C)C)C(=O)N[C@@H](CC(C)C)C(=O)N[C@@H](CC(=O)O)C(=O)N[C@@H](C)C(=O)N[C@@H](C)C(=O)N[C@@H](CCCCN)C(=O)N[C@@H](CCC(N)=O)C(=O)N[C@H](C(=O)N[C@@H](CC(C)C)C(=O)O)[C@@H](C)CC [MP1, reference compound] (H-IDWKKLLDAAKQIL-OH) | 31.5 | 23.4 | – | 18.7 | 50.6 | 111 | 35 | – | unacceptably high levels of hemolysis at all doses; also recorded: unacceptably high hemolytic activity | – | –
[H]/N=C(\N/C(=N/[H])NCCCCCCNC(=N)NC(=N)Nc1ccc(Cl)cc1)Nc1ccc(Cl)cc1 [chlorhexidine dihydrochloride] | – | – | – | – | – | – | – | – | – | – | small and nonsignificant decrease
